Laboratory results published in article PMC9145622, “Synthesis, Biological Evaluation, and Docking Studies of Antagonistic Hydroxylated Arecaidine Esters Targeting mAChRs” (Molecules, 2022).

Tests used:
hM1 = target: T1, hM1 (Homo sapiens, UniProt P11229); test: Competitive [3H]NMS radioligand binding, CHO-K1 membranes expressing hM1; settings: for Ki: [3H]NMS, CHO-hM1 cell membrane preparations, read-out: Affinity: Ki ± SD hM1; for x-Fold Selectivity for hM1 vs. hM2: ratio of the Ki values hM2/hM1; for x-Fold Selectivity for hM1 vs. hM3: ratio of the Ki values hM3/hM1; for x-Fold Selectivity for hM1 vs. hM4: ratio of the Ki values hM4/hM1; for x-Fold Selectivity for hM1 vs. hM5: ratio of the Ki values hM5/hM1
T1 sequence (P11229 1-460): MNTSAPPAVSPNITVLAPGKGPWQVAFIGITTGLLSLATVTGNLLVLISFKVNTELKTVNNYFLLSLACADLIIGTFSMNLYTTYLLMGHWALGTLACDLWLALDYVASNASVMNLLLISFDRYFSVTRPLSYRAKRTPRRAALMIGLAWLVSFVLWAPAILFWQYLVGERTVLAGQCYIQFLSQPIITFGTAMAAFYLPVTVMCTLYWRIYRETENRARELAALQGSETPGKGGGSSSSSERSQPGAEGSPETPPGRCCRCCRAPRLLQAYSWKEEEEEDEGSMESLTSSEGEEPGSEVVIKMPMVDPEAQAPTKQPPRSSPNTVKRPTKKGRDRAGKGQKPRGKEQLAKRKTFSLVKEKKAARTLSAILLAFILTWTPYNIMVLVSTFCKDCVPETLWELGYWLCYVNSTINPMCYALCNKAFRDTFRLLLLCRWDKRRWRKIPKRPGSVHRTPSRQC
From the text: (§1) The arecaidine esters’ affinities towards the human mAChR subtypes hM1–hM5 were studied in a competitive radioligand binding assay using CHO-K1 cell membrane homogenates expressing a single mAChR subtype and tritiated N-methyl scopolamine methyl chloride ([^3H]NMS). To speed up our affinity testing regime, we subjected all test substances to preliminary single-concentration displacement assays, as described previously. Compounds with percent displacements below 75% at any of the subtypes were dropped from further investigations (Table S1). For compounds meeting the percent displacement threshold (8c, 10b, 10c, 17b, 18b, and 25), inhibition constants (Ki) were assessed in dose-dependent displacement experiments (Table 2).
(§2) Cell membranes bearing hM1-hM5 receptors were prepared as described previously. Briefly, stably transfected CHO-K1 cells were grown to at least 80% confluency in T175 flasks, washed with ice-cold DPBS, and scraped into a mixture of ice-cold 2 mL 10 mM Tris-HCl, 1 mM EDTA-buffer, pH 7.4 and 200 µL protease inhibitor. A cell homogenate was prepared by passing the cell suspension through a G29 needle. The cell homogenates corresponding to two T175 flasks were combined and subsequently centrifuged (10 min, 1000× g, 4 °C). Ultracentrifugation of the supernatant (1 h, 100,000× g, 4 °C) yielded a membrane pellet, which was suspended in 250 µL 50 mM Tris-HCl buffer, pH 7.4 and stored at −80 °C.
(§3) Then, 5 µL of test compound in DMSO, 50 µL of [^3H]NMS in assay buffer, and 445 µL of membrane suspension in assay buffer were incubated for 90 min at 23 °C in PP tubes. Maximum binding was measured by using 5 µL DMSO, and nonspecific binding was measured by using 5 µL of 1 µM scopolamine in DMSO. The effective concentration of [^3H]NMS was 0.2 nM, 0.3 nM, 0.8 nM, 0.2 nM, and 1 nM for M1–M5 and 4–30 µg membrane were used per tube. The membrane-bound radioactivity was recovered by filtration through Whatman™ GF/B glass fiber filters presoaked in aqueous 0.1% PEI using an M-36 tygon tubed cell harvester (Brandel®, Gaithersburg, MD, USA). Membranes were washed three times with ice-cold washing buffer (50 mM Tris, pH 7.4) before being dried, transferred to 2 mL scintillation cocktail (UltimaGold™, high flashpoint LSC cocktail, PerkinElmer, Waltham, MA, USA) and counted in a β-counter (Hidex TDCR liquid scintillation counter in CPM mode). IC50 values were calculated by a variable slope logistic regression using at least five distinct concentrations of test compounds, pipetted in triplicates.

hM2 = target: T2, hM2 (Homo sapiens, UniProt P08172); test: Competitive [3H]NMS radioligand binding, CHO-K1 membranes expressing hM2; settings: [3H]NMS, CHO-hM2 cell membrane preparations; >1000 values from two independent (single-concentration) experiments; read-out: Affinity: Ki ± SD hM2
T2 sequence (P08172 1-466): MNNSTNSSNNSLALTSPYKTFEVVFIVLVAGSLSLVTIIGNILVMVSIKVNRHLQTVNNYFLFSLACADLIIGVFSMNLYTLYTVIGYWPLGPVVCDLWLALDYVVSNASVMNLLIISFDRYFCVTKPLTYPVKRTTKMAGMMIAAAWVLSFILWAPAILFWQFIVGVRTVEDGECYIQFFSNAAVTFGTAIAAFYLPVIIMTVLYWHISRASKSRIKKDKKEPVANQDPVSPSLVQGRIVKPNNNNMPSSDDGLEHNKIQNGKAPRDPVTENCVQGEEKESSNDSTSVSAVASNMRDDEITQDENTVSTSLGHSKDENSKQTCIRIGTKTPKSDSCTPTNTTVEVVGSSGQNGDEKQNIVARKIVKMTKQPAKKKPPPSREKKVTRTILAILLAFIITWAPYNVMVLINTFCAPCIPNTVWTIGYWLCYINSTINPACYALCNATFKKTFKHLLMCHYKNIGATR
From the text: as §1, §2, §3

hM3 = hM3 (Homo sapiens, UniProt P20309); test: Competitive [3H]NMS radioligand binding, CHO-K1 membranes expressing hM3; settings: [3H]NMS, CHO-hM3 cell membrane preparations; read-out: Affinity: Ki ± SD hM3
Chain of hM3 (P20309 whole entry): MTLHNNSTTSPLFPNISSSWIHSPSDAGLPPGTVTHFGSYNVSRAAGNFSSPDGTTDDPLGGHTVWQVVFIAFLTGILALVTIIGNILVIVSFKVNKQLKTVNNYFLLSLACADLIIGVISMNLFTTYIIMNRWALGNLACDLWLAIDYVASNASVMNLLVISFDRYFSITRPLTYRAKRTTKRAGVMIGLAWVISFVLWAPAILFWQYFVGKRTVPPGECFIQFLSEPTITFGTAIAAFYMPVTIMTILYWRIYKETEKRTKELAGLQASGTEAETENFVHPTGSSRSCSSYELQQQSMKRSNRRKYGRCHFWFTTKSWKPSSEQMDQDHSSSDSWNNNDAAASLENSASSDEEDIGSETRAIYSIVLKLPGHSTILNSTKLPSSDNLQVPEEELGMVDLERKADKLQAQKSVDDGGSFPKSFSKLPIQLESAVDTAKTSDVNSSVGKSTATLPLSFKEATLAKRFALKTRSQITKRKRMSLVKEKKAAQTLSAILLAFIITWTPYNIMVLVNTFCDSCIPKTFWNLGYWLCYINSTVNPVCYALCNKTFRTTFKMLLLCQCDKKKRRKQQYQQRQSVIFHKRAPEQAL
From the text: as §1, §2, §3

SMILES	Ki (hM1)	x-Fold Selectivity for hM1 vs. hM2 (hM1)	x-Fold Selectivity for hM1 vs. hM3 (hM1)	x-Fold Selectivity for hM1 vs. hM4 (hM1)	x-Fold Selectivity for hM1 vs. hM5 (hM1)	Ki (hM2)	Ki (hM3)
CN1CCC=C(C(=O)OCc2cccc(O)c2)C1 [Compound 18b, 3-hydroxybenzyl 1-methyl-1,2,5,6-tetrahydropyridine-3-carboxylate]	259 ± 75 nM		0.7 x-fold	2.4 x-fold	0.35 x-fold	> 1000 nM	188 ± 18 nM
CN1CCC=C(C(=O)OCc2ccc(CO)cc2)C1 [Compound 8c, 4-(hydroxymethyl)benzyl 1-methyl-1,2,5,6-tetrahydropyridine-3-carboxylate]	525 ± 36 nM	>1.9 x-fold	1.3 x-fold	1.3 x-fold	0.8 x-fold	> 1000 nM	663 ± 56 nM

These reach a lower Ki (hM1). Values come first.

Ki (hM1)	x-Fold Selectivity for hM1 vs. hM2 (hM1)	x-Fold Selectivity for hM1 vs. hM3 (hM1)	x-Fold Selectivity for hM1 vs. hM4 (hM1)	x-Fold Selectivity for hM1 vs. hM5 (hM1)	Ki (hM2)	Ki (hM3)	SMILES
231 ± 60 nM	>4.3 x-fold	1.2 x-fold	0.9 x-fold	1.2 x-fold	> 1000 nM	283 ± 20 nM	CN1CCC=C(C(=O)OCC(O)(c2ccccc2)c2ccccc2)C1 [Compound 25, 2-hydroxy-2,2-diphenylethyl 1-methyl-1,2,5,6-tetrahydropyridine-3-carboxylate]
74 ± 3.2 nM	13.2 x-fold	2.0 x-fold	1.3 x-fold	1.0 x-fold	980 ± 32 nM	150 ± 26 nM	CN1CCC=C(C(=O)OC(c2ccccc2)c2ccc(CO)cc2)C1 (stereo not drawn) [Compound 10c, (4-(hydroxymethyl)phenyl)(phenyl)methyl 1-methyl-1,2,5,6-tetrahydropyridine-3-carboxylate]
5.5 ± 0.5 nM		3.7 x-fold	3.3 x-fold	2.0 x-fold	172 ± 20 nM	20.4 ± 1.2 nM	CN1CCC=C(C(=O)OC(c2ccccc2)c2cccc(O)c2)C1 (stereo not drawn) [Compound 17b, (3-hydroxyphenyl)(phenyl)methyl 1-methyl-1,2,5,6-tetrahydropyridine-3-carboxylate]
